Results from patent US20200338028A1, “BENZENESULFONAMIDE DERIVATIVES AND METHOD FOR MODULATING LIPID RAFT” (Gongwin Biopharm Co., Ltd., priority 2017, published 2020).
Peptide text beside a SMILES is read from it. * marks the point of attachment. Cbz = O=C(OCc1ccccc1)*; CH2F = FC*

Key:
Type in all cases: cell-based, human
PC-3 cells [1] = test: PTS-induced apoptosis with Z-VAD-FMK (PI staining and nucleosomal DNA fragmentation assay); settings: PC-3, 24 hours, FIG. 2E and 2F
Protocol: Flow cytometric analysis was performed as follows. Cells were harvested by trypsinization, fixed with 70% (v/v) alcohol at 4° C. for 30 min and washed with PBS. After centrifugation, the cells were incubated in phosphate-citric acid buffer (0.2 mol/l NaHPO4, 0.1 mol/l citric acid, pH 7.8) for 30 min at room temperature. The cells were then centrifuged and resuspended with 0.5 ml propidium iodide (PI) solution containing Triton X-100 (0.1% v/v), RNase (100 μg/ml) and PI (80 μg/ml). DNA content was analyzed with the FACScan and CellQuest software (Becton Dickinson, Mountain View, Calif., United States).
The DNA fragmentation was determined for cell death determination by use of the Cell Death Detection ELISAplus kit (Roche, Mannheim, Germany) The assay was based on the quantitative in vitro determination of cytoplasmic histone-associated DNA fragments (mono- and oligonucleosomes) after induced cell death. After the treatment with the compound, the cells were lysed and centrifuged, and the supernatant was used for the detection of nucleosomal DNA according to the manufacturer's protocol.

DU-145 cells = test: Western blot of Bcl-2 family members, cell cycle regulators and Akt/mTOR/p70S6K pathway signals
Protocol: (§1) In addition, protein expression assay of each Mcl-1, Bcl-2, Bid, PUMA and Bak was performed by western blotting with methods described as follows. After treatment of PC-3 and DU145 cells with p-TSA, the cells were harvested with trypsinization, centrifuged and lysed in 0.1 ml of lysis buffer containing 10 mM Tris-HCl (pH 7.4), 150 mM NaCl, 1 mM EGTA, 1% Triton X-100, 1 mM PMSF, 10 μg/ml leupeptin, 10 μg/ml aprotinin, 50 mM NaF and 100 μM sodium orthovanadate. Total protein was quantified, mixed with the sample buffer and boiled at 90° C. for 5 min. Equal amount of protein (30 μg) was separated by electrophoresis in 8% or 12% SDS-PAGE, transferred to PVDF membranes and detected with specific antibodies (1:1000 dilution) for each of Mcl-1, Bcl-2, Bid, PUMA and Bak proteins. The immunoreactive proteins after incubation with appropriately labeled secondary antibody (1:3000 dilution) were detected with an enhanced chemiluminescence detection kit (Amersham, Buckinghamshire, United Kingdom). […] These effects were correlated with the mitochondrial stress.
(§2) During G1 phase, cells grow in size and synthesize mRNA and proteins which are necessary to DNA synthesis. The serine/threonine kinases mTOR and p70S6K that regulate protein synthesis (mRNA translation) through affecting the phosphorylation or activities of several downstream translation factors are critical regulators in G1 phase. Protein expression assay of each Akt, mTOR 4E-BP1 and p70S6K was performed by Western blotting.

PC-3 cells [2] = test: as above; settings: PC-3, 1 h, FIGS. 6A to 6D
Protocol: as §1, §2

PC-3 cells [3] = test: colony formation (clonogenic) assay; settings: PC-3, PTS 1.5 mM, 10 days, FIG. 6E
Protocol: To assay the anchorage-dependent clonogenic effect, each individual PC-3 and DU-145 cells (150 cells/well) were seeded in a 6-well plate. After a 10-day treatment with p-TSA, the cell colonies were rinsed with phosphate-buffered saline (PBS), stained with 0.4% (w/v) crystal violet dissolved in 20% methanol, and lysed by 50 mM sodium citrate dissolved in 50% ethanol. The absorbance was read at a wavelength of 595 nm.
To further substantiate the role of Akt, the Myr-Akt overexpressed PC-3 cells were prepared with the method shown as follows. The plasmid encoding Myr-Akt, an N-terminally myristoylation signal-attached Akt, was a gift from Professor Mien-Chie Hung (The University of Texas, M.D. Anderson Cancer Center). For transfection, PC-3 cells were seeded into 60-mm tissue culture dishes with 30% confluence and grown for 24 h to 50-60% confluence. Each dish was washed with serum-free Opti-MEM (Life Technologies), and 2 ml of the serum-free Opti-MEM was then added. Aliquots containing Myr-Akt expression vector or a control plasmid in serum-free Opti-MEM were transfected into cells using Lipofectamine 2000 (Invitrogen) following the manufacturer's instructions. After incubation for 6 h at 37° C., cells were washed with serum-free Opti-MEM and incubated in 10% FBS-containing RPMI-1640 medium for 48 h. The cells were treated with or without p-TSA and then the related analyses were performed. […] Furthermore, the functional rescue of Myr-Akt was determined. […] However, overexpression of Myr-Akt had minimal effect on p-TSA-induced cyclin D1 down-regulation.

[4] = particularly in DU-145 cells, 1 h

COC(=O)C[C@H](NC(=O)[C@H](C)NC(=O)[C@@H](NC(=O)OCc1ccccc1)C(C)C)C(=O)CF [Z-VAD-FMK] (Cbz-Val-Ala-Asp(OMe)-CH2F)
effect of Z-VAD-FMK on PTS-induced apoptosis (PC-3 cells [1]): profoundly inhibited PTS-induced apoptosis

CC(C)CCC[C@@H](C)[C@H]1CC[C@H]2[C@@H]3CC=C4C[C@@H](O)CC[C@]4(C)[C@H]3CC[C@]12C [cholesterol, reference compound]
effect of cholesterol supplement on p-TSA-induced decrease of Akt and p70S6K phosphorylation (DU-145 cells; DU-145, 1 h, FIGS. 6A to 6D): significantly rescued | Akt phosphorylation, cholesterol by itself (DU-145 cells; [4]): increase | cyclin D1 protein expression, cholesterol by itself (DU-145 cells; [4]): decrease | effect of cholesterol supplement on p-TSA-induced decrease of Akt and p70S6K phosphorylation (PC-3 cells [2]): significantly rescued | effect of cholesterol on PTS-induced inhibition of cell growth, colony formation assay (PC-3 cells [3]): significantly rescued PTS-induced inhibition of cell growth
